From patent US5728726A, “Method and compositions for inhibiting protein kinases” (Cor Therapeutics, Inc., priority 1995, dated 1998) come the findings set out here.

pIC50: −log10 of the molar value. Read-outs that look alike come from different tables or passages of the source. Bounds are passed on as bounds.

In one series the test system is CCD18. Kind of series: cell proliferation under normal tissue culture conditions, CCD18. It counts as cell-based. Conditions: Homo sapiens, read-out: IC50 CCD18.
Series [1] relates to human cell lines (HS68, HS 27, CCD18, and WS1). Kind of series: cells.
A further series concerns WS1. Briefly: cell proliferation under normal tissue culture conditions, WS1. The class given is cell-based. As to conditions: Homo sapiens, read-out: IC50 WS1.
The next series has as its target human beta PDGFR (Homo sapiens, UniProt P09619). Briefly: beta PDGF receptor autophosphorylation in HR5 cells.
In the next series the test system is HS68. Kind of series: cell proliferation under normal tissue culture conditions, HS68. Conditions: Homo sapiens, Hs68, 96 h, read-out: IC50 HS68.
The next series concerns the target T1, human FGF receptor-1 (Homo sapiens, UniProt P11362).
T1 construct: expressed in transfected cells; host or cells: CHO cells
Briefly: FGF receptor-1 autophosphorylation in CHO cells. It counts as cell-based. On the procedure:
In order to measure FGF receptor-1 autophosphorylation, the human FGF receptor-1 cDNA was stably over-expressed in CHO cells using standard techniques. These cells were grown to confluency in RPMI with 10% fetal bovine serum, the media was replaced with serum-free RPMI and incubation continued for 18 hours prior to stimulation with BFGF (75 ng/ml) for 10 min at 37° C. in the absence of presence or PTK inhibitors in a concentration range of 0.1-30 μM Cell lysates were prepared under the same conditions as described above for the EGF receptor assay. Lysates were incubated with a monoclonal antibody directed against the FGF receptor-1 extracellular domain (prepared at COR Therapeutics, South San Francisco, Calif.) and the immunoprecipitated receptor was subjected to SDS-PAGE and Western blot analysis with antiphosphotyrosine antibodies as described above for EGF receptor.

Another series deals with HS27. Briefly: cell proliferation under normal tissue culture conditions, HS27. It counts as cell-based. As to conditions: Homo sapiens, read-out: IC50 HS27.
Series [2] deals with human cell lines (HS68, HS 27, CCD18, and WS1). Conditions: 96 hours.
The next series addresses Protein Kinase A (PKA) (Homo sapiens, UniProt P17612). Briefly: Protein Kinase A non-radioactive kinase assay (UBI).
For another series, the system named is Protein Kinase C (PKC). Briefly: Protein Kinase C non-radioactive kinase assay (UBI). As to conditions: at a concentration of 40 μm.
Another series relates to HS68 cells. Briefly: PDGF BB-induced [3H]thymidine incorporation into HS68 cells. It counts as cell-based. Conditions: Homo sapiens, Hs68, read-out: concentration blocking PDGF BB induced thymidine incorporation by 50%. On the procedure: […]. Since there are many reports in the literature implicating PDGF in diseases such as glomerulonephritis, cancer, atherosclerosis, and restenosis we tested 292 for its ability to block PDGF induced cell proliferation. A human primary fibroblast cell line, HS68 (ATCC), was plated into 96 well dishes at 150,000 cells/well in media containing 10% fetal bovine serum in DMEM. The cells were incubated at 37° C. for 7-10 days at which time they had become confluent and quiescent. […] To determine the level of cell proliferation, […] of [^3 H ]thymidine were added to each well and incubation was continued for an additional 5 hours. Cells were then washed with 5% cold trichloroacetic acid (TCA), solubilized in 0.2N NaOH, 0.1% SDS and the amount of [^3 H]thymidine incorporation was determined. […].
In general terms: Incorporation of labelled thymidine or its analogues reports DNA synthesis.

In another series the target is recombinant c-src (Homo sapiens, UniProt P12931). Briefly: recombinant c-src kinase microtiter plate assay.
Chain of recombinant c-src (P12931 whole entry): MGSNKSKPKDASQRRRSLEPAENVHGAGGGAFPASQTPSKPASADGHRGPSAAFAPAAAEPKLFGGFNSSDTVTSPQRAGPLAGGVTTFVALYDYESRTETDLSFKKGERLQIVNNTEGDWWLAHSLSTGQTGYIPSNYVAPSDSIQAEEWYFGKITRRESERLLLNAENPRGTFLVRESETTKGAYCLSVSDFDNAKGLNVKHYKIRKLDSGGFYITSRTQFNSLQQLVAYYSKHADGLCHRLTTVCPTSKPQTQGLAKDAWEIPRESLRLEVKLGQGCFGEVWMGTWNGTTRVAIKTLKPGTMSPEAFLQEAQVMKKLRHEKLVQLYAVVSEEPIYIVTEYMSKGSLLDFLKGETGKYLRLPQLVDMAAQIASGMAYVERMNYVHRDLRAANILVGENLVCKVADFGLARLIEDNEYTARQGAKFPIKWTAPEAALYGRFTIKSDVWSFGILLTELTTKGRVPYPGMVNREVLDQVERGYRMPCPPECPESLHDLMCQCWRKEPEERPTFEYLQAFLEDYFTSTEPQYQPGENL

T1 sequence (P11362 22-822): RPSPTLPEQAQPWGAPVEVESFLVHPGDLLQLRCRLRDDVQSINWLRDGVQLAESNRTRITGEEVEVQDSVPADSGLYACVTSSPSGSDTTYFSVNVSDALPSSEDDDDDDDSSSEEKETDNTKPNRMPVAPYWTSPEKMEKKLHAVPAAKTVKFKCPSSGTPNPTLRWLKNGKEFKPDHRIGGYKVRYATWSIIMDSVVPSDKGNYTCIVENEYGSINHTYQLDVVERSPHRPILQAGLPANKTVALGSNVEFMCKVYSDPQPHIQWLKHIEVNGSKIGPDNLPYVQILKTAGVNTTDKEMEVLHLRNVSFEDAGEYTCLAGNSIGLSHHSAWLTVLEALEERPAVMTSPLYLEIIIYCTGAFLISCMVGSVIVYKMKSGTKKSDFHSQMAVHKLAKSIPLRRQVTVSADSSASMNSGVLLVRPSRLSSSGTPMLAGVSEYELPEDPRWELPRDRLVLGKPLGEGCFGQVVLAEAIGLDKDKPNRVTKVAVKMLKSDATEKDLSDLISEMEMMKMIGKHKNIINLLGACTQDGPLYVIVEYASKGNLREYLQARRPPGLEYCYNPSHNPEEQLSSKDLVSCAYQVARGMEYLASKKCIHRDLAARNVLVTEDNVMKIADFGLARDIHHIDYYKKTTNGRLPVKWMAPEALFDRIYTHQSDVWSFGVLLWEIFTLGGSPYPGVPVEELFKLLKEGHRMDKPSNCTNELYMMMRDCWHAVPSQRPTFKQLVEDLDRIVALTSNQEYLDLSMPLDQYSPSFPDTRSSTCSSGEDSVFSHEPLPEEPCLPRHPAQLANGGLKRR
Chain of human beta PDGFR (P09619 33-1106): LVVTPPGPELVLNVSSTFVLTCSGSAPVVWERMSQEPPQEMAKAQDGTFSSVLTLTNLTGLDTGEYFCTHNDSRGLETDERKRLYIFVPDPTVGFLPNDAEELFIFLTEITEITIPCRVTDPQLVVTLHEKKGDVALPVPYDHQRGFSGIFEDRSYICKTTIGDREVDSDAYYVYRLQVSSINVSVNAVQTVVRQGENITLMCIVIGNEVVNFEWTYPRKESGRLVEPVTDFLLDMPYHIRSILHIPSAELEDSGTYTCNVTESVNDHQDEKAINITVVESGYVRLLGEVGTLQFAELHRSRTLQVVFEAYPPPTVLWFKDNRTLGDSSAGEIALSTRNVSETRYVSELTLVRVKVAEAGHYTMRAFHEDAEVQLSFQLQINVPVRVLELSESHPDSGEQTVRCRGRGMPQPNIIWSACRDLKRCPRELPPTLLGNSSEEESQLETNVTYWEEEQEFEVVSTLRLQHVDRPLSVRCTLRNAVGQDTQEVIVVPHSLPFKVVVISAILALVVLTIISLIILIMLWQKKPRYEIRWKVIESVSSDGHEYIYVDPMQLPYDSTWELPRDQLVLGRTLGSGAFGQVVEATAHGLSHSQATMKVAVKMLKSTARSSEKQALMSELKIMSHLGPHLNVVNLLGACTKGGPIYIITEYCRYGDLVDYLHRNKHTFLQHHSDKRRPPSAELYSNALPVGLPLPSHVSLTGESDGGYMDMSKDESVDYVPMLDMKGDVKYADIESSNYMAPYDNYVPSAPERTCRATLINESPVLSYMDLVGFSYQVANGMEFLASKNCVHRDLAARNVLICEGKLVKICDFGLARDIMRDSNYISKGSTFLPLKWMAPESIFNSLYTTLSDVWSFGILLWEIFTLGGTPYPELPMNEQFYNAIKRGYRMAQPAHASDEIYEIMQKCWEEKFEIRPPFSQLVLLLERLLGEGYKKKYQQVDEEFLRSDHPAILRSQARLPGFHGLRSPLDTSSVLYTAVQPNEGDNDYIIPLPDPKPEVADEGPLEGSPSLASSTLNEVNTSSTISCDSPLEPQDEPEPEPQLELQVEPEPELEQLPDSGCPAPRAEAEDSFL
Protocol for recombinant c-src: After a 20 minute incubation at 37° C., the reactions were stopped by adding 10 ul of 50% acetic acid, the wells were washed and anti-phosphotyrosine antibody was used to detect the tyrosine phosphorylated substrate under the same conditions as described above for the detection of phosphorylated PDGF receptor.

`COc1cc(O)c2c(c1)/C=C/C[C@H](O)[C@H](O)C(=O)/C=C\C[C@H](C)OC2=O` [Compound 292]: the pIC50 in the series with CCD18 (Table 3, 96 hours, 10% fetal bovine serum) was less than 4.52; with WS1 (WS1, Table 3, 96 hours, 10% fetal bovine serum), less than 4.52; in the series on HS68 it was less than 4.52; against human FGF receptor-1 (Table 2, inhibition of protein kinase activity), less than 4.52; with HS27 (HS27, Table 3, 96 hours, 10% fetal bovine serum), less than 4.52; on Protein Kinase A (PKA), less than 4.40. In addition, the pIC50 with HS68 cells is 7.80. Also, in series [1] (96 h, read-out: decrease in cell growth), the inhibition at 30 µM was 10 to 20%. Also, the IC100 at human beta PDGFR (read-out: concentrations at which complete inhibition was observed) was more than 0.2 µM. Further, the “inhibition of FGF receptor autophosphorylation” value on human FGF receptor-1 (concentrations as high as 30 μM) is “no detectable inhibition”. Besides, the “decrease in cell growth of any of the cell lines tested” value in series [2] (concentrations up to 10 μm) is “no decrease”. On Protein Kinase A (PKA) (at a concentration of 40 μm), the “reduction in PKA activity” value is reported as “did not achieve a 50% reduction”. Besides, in the series with Protein Kinase C (PKC), the “reduction in PKC activity” value is reported as “did not achieve a 50% reduction”.

For the compound `COC(=O)[C@@]1(O)C[C@H]2O[C@]1(C)n1c3ccccc3c3c4c(c5c6ccccc6n2c5c31)C(=O)NC4` [Compound K252a, K252a, reference compound], the pIC50 with CCD18 (96 h) is 6.00; in series [1] (read-out: concentration range inhibiting cell growth by 50%) it was 4.92 to 6.00; with WS1 (WS1, 96 h), 5.30; against human beta PDGFR it was 6.57; in the series with HS68, 5.30; at recombinant c-src it was 7.70. The pIC50 was 4.92 in the series on HS27 (HS27, 96 h); 7.15 on Protein Kinase A (PKA); 7.15 at Protein Kinase A (PKA) (IC50 PKA, Table 2, inhibition of protein kinase activity).

Consider `CN[C@@H]1C[C@H]2O[C@@](C)([C@@H]1OC)n1c3ccccc3c3c4c(c5c6ccccc6n2c5c31)C(=O)NC4` [Staurosporin, reference compound], for which the “concentration completely blocking the growth of all of the cell lines” value in [2] stood at 0.01 µM.
